Assay results as given in ChEMBL document CHEMBL5465560, “Selectivity Literature for EUbOPEN Chemogenomic Library” (2024).

What was measured:
[1] = target: Tyrosine-protein kinase HCK (Homo sapiens) (UniProt P08631); assay: Selectivity interaction (KinomeScan (DiscoverX)) EUB0000655a HCK; conditions: at 10 µM
[2] = target: Serine/threonine-protein kinase Chk2 (Homo sapiens) (UniProt O96017); assay: Selectivity interaction (ActivX KiNativ screen (kinase selectivity in THP-1 cell lysates)) EUB0000639a CHEK2; assay type: subcellular; conditions: lysate
Chain of Serine/threonine-protein kinase Chk2 (Homo sapiens) (O96017 whole entry): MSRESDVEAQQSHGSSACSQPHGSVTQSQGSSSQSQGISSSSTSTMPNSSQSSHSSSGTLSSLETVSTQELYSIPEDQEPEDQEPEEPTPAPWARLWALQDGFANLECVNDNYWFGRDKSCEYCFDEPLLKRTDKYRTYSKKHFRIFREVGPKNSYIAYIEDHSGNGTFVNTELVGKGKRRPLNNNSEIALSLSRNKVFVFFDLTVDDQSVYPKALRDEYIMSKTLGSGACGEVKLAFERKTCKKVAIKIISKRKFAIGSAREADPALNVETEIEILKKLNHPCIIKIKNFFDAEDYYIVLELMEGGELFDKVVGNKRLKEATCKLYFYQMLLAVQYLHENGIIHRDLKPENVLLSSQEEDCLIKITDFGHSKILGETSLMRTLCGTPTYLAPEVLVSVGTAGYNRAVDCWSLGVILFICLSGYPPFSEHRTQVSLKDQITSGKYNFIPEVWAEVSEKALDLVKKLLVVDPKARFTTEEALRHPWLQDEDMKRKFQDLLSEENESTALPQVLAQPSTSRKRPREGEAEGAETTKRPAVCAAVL

[3] = target: Tyrosine-protein kinase HCK (Homo sapiens) (UniProt P08631); assay: Selectivity interaction (ActivX KiNativ screen (kinase selectivity in THP-1 cell lysates)) EUB0000639a HCK; assay type: subcellular; conditions: lysate
[4] = target: T1, Ephrin type-B receptor 4 (Homo sapiens) (UniProt P54760); assay: Selectivity interaction (KinomeScan (DiscoverX)) EUB0000607a EPHB4; conditions: at 10 µM
T1 sequence (whole entry): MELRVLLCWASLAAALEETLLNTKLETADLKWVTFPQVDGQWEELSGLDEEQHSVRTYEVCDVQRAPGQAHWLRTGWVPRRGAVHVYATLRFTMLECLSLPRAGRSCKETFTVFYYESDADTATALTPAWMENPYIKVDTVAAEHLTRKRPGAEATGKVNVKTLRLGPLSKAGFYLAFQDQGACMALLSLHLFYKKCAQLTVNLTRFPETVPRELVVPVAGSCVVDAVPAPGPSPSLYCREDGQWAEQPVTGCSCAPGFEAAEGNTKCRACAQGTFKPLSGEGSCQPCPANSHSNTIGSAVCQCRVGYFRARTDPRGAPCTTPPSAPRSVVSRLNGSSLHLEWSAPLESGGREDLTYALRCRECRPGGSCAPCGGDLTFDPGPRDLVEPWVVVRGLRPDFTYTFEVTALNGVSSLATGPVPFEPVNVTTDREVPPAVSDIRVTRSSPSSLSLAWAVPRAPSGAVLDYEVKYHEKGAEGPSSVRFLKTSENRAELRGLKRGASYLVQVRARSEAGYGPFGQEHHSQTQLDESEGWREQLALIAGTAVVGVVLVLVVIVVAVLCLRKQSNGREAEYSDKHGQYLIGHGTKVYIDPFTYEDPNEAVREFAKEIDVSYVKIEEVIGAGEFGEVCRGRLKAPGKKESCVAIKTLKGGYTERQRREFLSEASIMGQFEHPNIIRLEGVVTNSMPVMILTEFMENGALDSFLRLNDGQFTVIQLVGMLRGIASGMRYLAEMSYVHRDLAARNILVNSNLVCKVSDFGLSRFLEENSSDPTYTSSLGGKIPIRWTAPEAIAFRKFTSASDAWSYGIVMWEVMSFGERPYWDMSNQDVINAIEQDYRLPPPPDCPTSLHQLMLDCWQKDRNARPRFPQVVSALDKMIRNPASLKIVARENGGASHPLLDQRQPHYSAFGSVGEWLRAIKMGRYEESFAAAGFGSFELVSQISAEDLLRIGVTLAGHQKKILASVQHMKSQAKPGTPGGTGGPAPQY

[5] = target: T2, NUAK family SNF1-like kinase 1 (Homo sapiens) (UniProt O60285); assay: Selectivity interaction (KinomeScan (DiscoverX)) EUB0001049a NUAK1; conditions: at 1 µM
T2 sequence (whole entry): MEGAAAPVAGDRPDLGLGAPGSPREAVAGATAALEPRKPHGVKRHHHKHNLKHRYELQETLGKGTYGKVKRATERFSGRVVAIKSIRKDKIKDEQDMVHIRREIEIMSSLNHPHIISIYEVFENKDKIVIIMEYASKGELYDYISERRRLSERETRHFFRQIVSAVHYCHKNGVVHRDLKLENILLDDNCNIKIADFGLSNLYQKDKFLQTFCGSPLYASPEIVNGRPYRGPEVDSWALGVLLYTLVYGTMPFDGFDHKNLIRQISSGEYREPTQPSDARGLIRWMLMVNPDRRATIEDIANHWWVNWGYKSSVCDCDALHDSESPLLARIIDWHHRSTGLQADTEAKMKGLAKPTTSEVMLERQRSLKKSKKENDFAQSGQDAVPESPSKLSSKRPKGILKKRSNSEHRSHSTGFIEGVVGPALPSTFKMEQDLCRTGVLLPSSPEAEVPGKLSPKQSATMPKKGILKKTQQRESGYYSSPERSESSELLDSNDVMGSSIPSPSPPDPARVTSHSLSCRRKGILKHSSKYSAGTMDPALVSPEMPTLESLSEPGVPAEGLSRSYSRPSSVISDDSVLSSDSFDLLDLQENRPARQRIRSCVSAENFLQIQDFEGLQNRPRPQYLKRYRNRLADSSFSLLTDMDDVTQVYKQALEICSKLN

[6] = target: T3, Serine/threonine-protein kinase NLK (Homo sapiens) (UniProt Q9UBE8); conditions: at 10 µM
T3 sequence (whole entry): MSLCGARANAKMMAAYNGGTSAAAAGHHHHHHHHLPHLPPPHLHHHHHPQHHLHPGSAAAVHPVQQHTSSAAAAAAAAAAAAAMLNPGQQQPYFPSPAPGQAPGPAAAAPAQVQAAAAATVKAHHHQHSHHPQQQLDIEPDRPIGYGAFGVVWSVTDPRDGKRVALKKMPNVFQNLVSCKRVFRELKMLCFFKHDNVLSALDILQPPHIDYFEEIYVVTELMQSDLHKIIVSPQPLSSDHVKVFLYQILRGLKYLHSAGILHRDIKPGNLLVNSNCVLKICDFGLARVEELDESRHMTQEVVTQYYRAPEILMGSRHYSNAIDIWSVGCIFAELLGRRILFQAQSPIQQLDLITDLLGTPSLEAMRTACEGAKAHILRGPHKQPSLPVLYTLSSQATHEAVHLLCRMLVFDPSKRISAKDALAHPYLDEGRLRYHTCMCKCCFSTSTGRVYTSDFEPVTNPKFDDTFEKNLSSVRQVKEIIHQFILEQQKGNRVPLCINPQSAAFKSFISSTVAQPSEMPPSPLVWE

Chain of Tyrosine-protein kinase HCK (Homo sapiens) (P08631 2-526 limits assumed): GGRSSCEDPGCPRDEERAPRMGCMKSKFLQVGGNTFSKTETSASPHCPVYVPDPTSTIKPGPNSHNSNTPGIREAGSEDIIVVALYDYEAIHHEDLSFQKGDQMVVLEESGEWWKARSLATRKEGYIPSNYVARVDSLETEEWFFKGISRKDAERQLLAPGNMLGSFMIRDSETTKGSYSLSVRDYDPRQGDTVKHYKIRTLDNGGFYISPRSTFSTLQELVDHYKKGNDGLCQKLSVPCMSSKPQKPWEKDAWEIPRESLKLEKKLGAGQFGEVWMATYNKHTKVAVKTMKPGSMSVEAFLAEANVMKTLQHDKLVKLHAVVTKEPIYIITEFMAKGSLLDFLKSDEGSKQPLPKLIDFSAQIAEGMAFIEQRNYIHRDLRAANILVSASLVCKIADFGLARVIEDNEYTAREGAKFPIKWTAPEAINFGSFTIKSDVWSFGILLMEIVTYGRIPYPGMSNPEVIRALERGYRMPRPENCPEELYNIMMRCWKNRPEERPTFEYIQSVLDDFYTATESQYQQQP

`CN(C)CCOc1ccc(-c2nc(-c3ccncc3)c(-c3ccc4c(c3)CC/C4=N\O)[nH]2)cc1` showed a % of control [1] of 84%.

In the case of `CC[C@@H]1[C@H](F)C(=O)N[C@@H]1COc1nccc2cc(C(N)=O)c(OC)cc12` [ZIMLOVISERTIB], the % of inhibition ([2]; at 0.01 µM) is reported as 4.5%, the % of inhibition ([2]; at 0.04 µM) is reported as 8.5% and the % of inhibition ([2]; at 0.2 µM) is reported as 3.8%. For the same compound, the % of inhibition ([2]; at 1 µM) was 30.1%, the % of inhibition ([2]; at 5 µM) was 58.9% and the % of inhibition ([3]; at 0.01 µM) was -5.9%. For the same compound, the % of inhibition ([3]; at 0.04 µM) was -8.6%, the % of inhibition ([3]; at 0.2 µM) was -9.9% and the % of inhibition ([3]; at 1 µM) was -4.8%. For the same compound, the % of inhibition ([3]; at 5 µM) was -3.1%.

Work on `CNC(=O)Nc1ccc(-c2nc(N3CC4CCC(C3)O4)c3cnn(C4CCC5(CC4)OCCO5)c3n2)cc1` yielded a % of control [4] of 100%.

`COc1cc(Nc2nc(C)cc(-c3cnn4nc(OC)ccc34)n2)cc(C(F)(F)F)c1` was tested, and the % of control [5] was 100%.

Work on `COCC(=O)NC/C=C/c1ccc2ncnc(Nc3ccc(Oc4ccc(C)nc4)c(C)c3)c2c1` [CP-724714] yielded a % of control [6] of 100%.
